According to publication PMC9426601 (mBio, 2022):
Like-named read-outs stand apart in the source and are kept apart here.

Tests used:
[1] = tested on: A(H1N1pdm09) 100% PA/E23K; parameters: species or system ferrets (Mustela putorius furo); AUC (area under the curve of nasal wash viral titer): unit not given beside the values; settings: in vivo
[2] = tested on: A(H1N1pdm09) 80% WT: 20% PA/E23K; parameters: species or system ferrets (Mustela putorius furo); AUC (area under the curve of nasal wash viral titer): unit not given beside the values; settings: in vivo
[3] = tested on: A(H1N1pdm09)-PA/E23K; type: cell-based, influenza A(H1N1pdm09) virus
[4] = tested on: A(H3N2)-PA/I38T; type: cell-based, influenza A(H3N2) virus
[5] = tested on: A(H3N2) 100% PA/I38T; parameters: species or system ferrets (Mustela putorius furo); AUC (area under the curve of nasal wash viral titer): unit not given beside the values; settings: in vivo
[6] = tested on: A(H1N1pdm09)-PA/E23K; type: cell-based, influenza A(H1N1pdm09) virus; remark: listed apart in the source
[7] = tested on: A(H3N2) 80% WT: 20% PA/I38T; parameters: species or system ferrets (Mustela putorius furo); AUC (area under the curve of nasal wash viral titer): unit not given beside the values; settings: in vivo
[8] = tested on: A(H3N2)-PA/I38T; type: cell-based, influenza A(H3N2) virus; remark: listed apart in the source
[9] = target: NA activity of A(H3N2)-PA/I38T (Influenza A virus, UniProt P06818); type: biochemical
[10] = target: NA activity of A(H1N1pdm09)-PA/E23K (Influenza A virus, UniProt C7FH46); type: biochemical; settings: read-out: IC50 (nM), neuraminidase inhibitor
[11] = read-out: Baloxavir EC50 (nM) YRA
[12] = read-out: Baloxavir EC50 (nM) FRA
[13] = read-out: Oseltamivir IC50 (nM) YRA

## O=C1c2c(O)c(=O)ccn2N([C@@H]2c3ccccc3SCc3c2ccc(F)c3F)[C@@H]2COCCN12 [Baloxavir, baloxavir acid]
[1]
  AUC (area under the curve of nasal wash viral titer): 28.6 ± 0.8
  Duration of viral shedding: 6.3 ± 0.5 days
  rapid reduction in viral load in the first 24 h following treatment: not observed
  reduction in AUC relative to placebo: no significant difference
[2]
  AUC (area under the curve of nasal wash viral titer): 24.7 ± 2.4
  Duration of viral shedding: 5.3 ± 0.5 days
  reduction in AUC relative to placebo: 6%
[3]
  fold increase in EC50 compared to the corresponding WT, YRA: 9 fold
[3]; [11]
  EC50: 2.6 ± 0.07 nM
[4]
  fold increase in EC50 compared to the corresponding WT, YRA: 100 fold
[4]; [11]
  EC50: 40.1 ± 15.6 nM
[5]
  AUC (area under the curve of nasal wash viral titer): 23.4 ± 1.4
  Duration of viral shedding: 5.7 ± 0.5 days
  reduction in AUC relative to placebo: 10%
  reduction in viral shedding relative to placebo: 0.6 days
[6]
  fold higher EC50 compared to the corresponding pretreatment virus, FRA: 17 fold
[6]; [12]
  EC50: 20.8 ± 10.2 nM
[7]
  AUC (area under the curve of nasal wash viral titer): 18.6 ± 1.4
  Duration of viral shedding: 4.7 ± 0.5 days
[8]
  fold higher EC50 compared to the corresponding pretreatment virus, FRA: 77 fold
[8]; [12]
  EC50: 46 ± 6.9 nM

## CCOC(=O)C1=C[C@@H](OC(CC)CC)[C@H](NC(C)=O)[C@@H](N)C1 [Oseltamivir, oseltamivir]
[1]
  AUC (area under the curve of nasal wash viral titer): […]
  Duration of viral shedding: […]
[2]
  AUC greater than placebo: 7%
[3]; [13]
  IC50: […]
[4]; [13]
  IC50: […]
[5]
  Duration of viral shedding: […]
[9]; read-out: Oseltamivir IC50 (nM) NIA
  IC50: […]
[7]
  AUC (area under the curve of nasal wash viral titer): […]
  Duration of viral shedding: […]

## CCC(CC)[C@H](NC(C)=O)[C@@H]1[C@H](O)[C@@H](C(=O)O)C[C@H]1N=C(N)N [Peramivir]
[10]
  IC50: 0.17 ± 0.01 nM
[9]; read-out: IC50 (nM), neuraminidase inhibitor
  IC50: 0.12 ± 0.1 nM
